Measurements from patent publication US10596145B2, “Heterocyclic flavone derivatives, compositions, and methods related thereto” (Emory University, priority 2012, dated 2020).
“Also recorded” adds a separate entry of the source.

Legend:
[1] = tested on: Akt; assay: Downstream Akt activation in mouse brain (p-Akt immunoblotting, p-Akt 473 ELISA); format: in vivo; details: 2.5 mg/kg/day oral, 3 weeks
Description: PathScan Phospho-Akt1 (Ser473) Sandwich ELISA kit was purchased from Cell Signaling (Cat. #7160). 100 μl sample in sample diluent (supplied in the kit) was added to each well and incubated overnight at 4° C. After 4× wash with 200 ul wash buffer (supplied in the kit), 100 ul/well detection antibody was added and incubated for 1 hour at 37° C. After 4× wash, 100 μl of HRP-linked secondary antibody (supplied in the kit) was added and incubated for 30 minutes at 37° C. After a final wash, 100 μl of TMB substrate was added to each well and incubated for 10 minutes at 37° C. The reaction was stopped by adding 100 μl/well stop solution. Record the values of each well using microplate reader at 450 nm and 650 nm. The optical density was determined by the subtraction of the reading at 650 nm from the reading s at 450 nm.
Male C57BL/6 mice aged of two months were administrated orally with 4′-DMA-7,8-DHF derivatives at a single dose of 1 mg/kg for 4 h. The control mice were injected with saline. The mice were sacrificed and brains were homogenated and ultracentrafuged. The supernatant (40 μg) was employed for SDS-PAGE and immunoblotting analysis with indicated antibodies, respectively. Male C57BL/6 mice aged of two months were administrated orally with compound (i) or (m) at the dose of 5 mg/kg/day each and compound o or p at the dose of 2.5 mg/kg/day each for 21 days. BrdU (100 mg/kg) was i. p. injected two hours before the TrkB agonist treated animals were sacrificed and the hippocampal section lysates were analyzed by immunoblotting with p-TrkB and total TrkB antibodies, p-AKT ELISA.

[2] = tested on: C57BL/6J mice; assay: Forced swim test; format: in vivo, mouse
Description: Male C57BL/6J mice (6 mice/group) were orally administrated by gavage with 5 mg/kg compound (m) or compound (i) and vehicle solvent saline for 21 days and subjected to a forced swim test (6 min, immobility recorded in the last 4 min). Data are presented as mean±SEM. (n=6, ***P<0.0001 vs vehicle, Student t-test).
Forced swim test. Male C57BL/6J mice (8 mice/group) were orally administrated by gavage with 2.5 mg/kg compound o or compound p and vehicle solvent saline for 21 days and subjected to a forced swim test (6 min, immobility recorded in the last 4 min). […] Data are presented as mean±SEM.
Adult male mice (2-3 months old) were randomly submitted to a forced swim test without a preswim. Test compounds were orally administrated by gavage for 21 days. The mice were allowed to adapt to the test room for 2 days. The mice were placed in a clear glass cylinder with a diameter of 16 cm, half-filled with clear water at 24° C.

[3] = tested on: C57BL/6J mice; assay: Tail suspension test; format: in vivo, mouse; details: 2.5 mg/kg oral, 21 days
Description: The drug-treated mice were subjected tail suspension assay. […] Data are presented as mean±SEM.
One suspends mice by the tail to a horizontal ring stand bar 30 cm above the floor using adhesive tape for 6 minutes and videotaped. Latency to immobility and time spent immobile will be scored for each mouse. Following the test, mice will be returned to their home cage. Immobility scores were compared by unpaired t test.

[4] = tested on: C57BL/6J mice; assay: Locomotor activity assay; format: in vivo, mouse; details: 2.5 mg/kg oral, 3 weeks
Description: The above drug-treated mice were subjected locomotor activity at day 22. […] Data are presented as mean±SEM.
Locomotor activity was assessed using an automated system (San Diego Instruments, La Jolla, Calif., USA) with photobeams that recorded ambulations (consecutive beam breaks). Drug-treated mice were placed in the locomotor chambers, and their activity was recorded for 2 h with 30 min interval.

[5] = tested on: HepG2 cells; assay: In vitro cytotoxicity assay with HepG2 cells; format: cell-based; details: micronucleus and comet assays
Description: HepG2 cells were treated with various concentrations of flavonoids for 24 h. The drug-treated cells were subjected to trypan blue exclusive assay. Data are presented as mean±SEM. (n=3, ***P<0.0001 vs vehicle).
In vitro and in vivo ADMET (ADME plus toxicity) of certain compounds were examined. […] Micronuclei formation is an important endpoint in genotoxicity study. […] Next, a Comet assay was performed with 100 μM drug-treated HepG2 cells. As a positive control, etoposide, a topoisomerase inhibitor, which causes DNA strand breaks was used.

[6] = Human liver microsomal stability assay; format: in vitro ADME; details: human liver microsomes, 1 h incubation
Text: (§1) To explore these compounds' in vitro ADMET profiles, we conducted numerous in vitro assays.

[7] = Reactive metabolic screening assay; format: in vitro ADME; details: liver microsomal lysates
Text: as §1

[8] = biological target: T1, CYP1A2 (Homo sapiens, UniProt P05177); assay: CYP screen inhibition; format: in vitro ADME
T1 sequence (P05177 1-516): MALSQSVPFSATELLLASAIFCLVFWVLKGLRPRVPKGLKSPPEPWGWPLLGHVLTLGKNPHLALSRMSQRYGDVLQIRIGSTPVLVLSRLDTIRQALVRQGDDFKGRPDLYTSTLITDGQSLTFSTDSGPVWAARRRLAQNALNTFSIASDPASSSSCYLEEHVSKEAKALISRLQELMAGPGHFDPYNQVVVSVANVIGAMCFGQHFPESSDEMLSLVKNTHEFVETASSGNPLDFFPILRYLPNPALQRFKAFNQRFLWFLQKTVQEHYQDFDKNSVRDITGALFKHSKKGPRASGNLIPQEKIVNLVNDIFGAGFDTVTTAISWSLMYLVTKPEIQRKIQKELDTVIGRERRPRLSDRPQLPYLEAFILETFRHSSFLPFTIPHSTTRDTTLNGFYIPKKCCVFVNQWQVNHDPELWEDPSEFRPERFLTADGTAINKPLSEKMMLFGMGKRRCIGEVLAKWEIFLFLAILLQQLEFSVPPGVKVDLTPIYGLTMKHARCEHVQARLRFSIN
Description: (§2) At 30 μM, the inhibition patterns contained similar trends. To test the possible cardiovascular toxicity, hERG inhibition triggered by compound o was examined.

[9] = biological target: hERG (Homo sapiens, UniProt Q12809); assay: hERG inhibition assay
Description: as §2

Sequence of hERG (Q12809 whole entry): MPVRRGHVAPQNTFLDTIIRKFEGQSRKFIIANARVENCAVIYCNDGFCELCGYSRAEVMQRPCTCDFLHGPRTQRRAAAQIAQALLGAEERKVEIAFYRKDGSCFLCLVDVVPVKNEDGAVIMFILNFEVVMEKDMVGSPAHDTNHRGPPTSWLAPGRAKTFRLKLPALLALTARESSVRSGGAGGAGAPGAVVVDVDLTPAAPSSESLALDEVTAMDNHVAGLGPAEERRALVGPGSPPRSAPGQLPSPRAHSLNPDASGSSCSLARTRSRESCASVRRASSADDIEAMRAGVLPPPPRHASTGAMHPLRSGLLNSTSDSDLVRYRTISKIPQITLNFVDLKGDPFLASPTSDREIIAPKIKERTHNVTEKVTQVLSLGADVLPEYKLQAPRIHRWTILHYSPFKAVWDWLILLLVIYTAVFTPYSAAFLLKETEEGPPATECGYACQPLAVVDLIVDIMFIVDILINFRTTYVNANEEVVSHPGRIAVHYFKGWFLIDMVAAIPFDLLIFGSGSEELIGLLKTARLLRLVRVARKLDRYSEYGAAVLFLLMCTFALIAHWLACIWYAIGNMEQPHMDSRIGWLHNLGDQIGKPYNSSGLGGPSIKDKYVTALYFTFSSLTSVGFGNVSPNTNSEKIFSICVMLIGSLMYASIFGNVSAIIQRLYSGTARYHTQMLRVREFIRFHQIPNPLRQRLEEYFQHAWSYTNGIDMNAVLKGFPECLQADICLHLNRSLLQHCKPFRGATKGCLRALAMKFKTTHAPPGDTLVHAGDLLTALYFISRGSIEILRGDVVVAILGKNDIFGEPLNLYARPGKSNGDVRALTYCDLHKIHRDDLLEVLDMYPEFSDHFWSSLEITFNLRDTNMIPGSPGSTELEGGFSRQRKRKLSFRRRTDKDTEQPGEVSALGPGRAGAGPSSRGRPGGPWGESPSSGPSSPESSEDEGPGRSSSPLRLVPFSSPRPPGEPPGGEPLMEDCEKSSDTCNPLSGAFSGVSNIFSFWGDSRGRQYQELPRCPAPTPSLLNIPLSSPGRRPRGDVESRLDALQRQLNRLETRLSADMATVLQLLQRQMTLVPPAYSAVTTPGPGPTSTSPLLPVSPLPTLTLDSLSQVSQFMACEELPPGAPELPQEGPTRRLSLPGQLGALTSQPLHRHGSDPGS

Cc1nc2ccc3c(=O)cc(-c4ccc(N5CCCC5)cc4)oc3c2[nH]1 [compound o, 2-methyl-8-(4-(pyrrolidin-1-yl)phenyl)chromeno[7,8-d]imidazol-6(1H)-one]
Akt activation (quantitative p-Akt ELISA) [1]: notably activated Akt
reduction of immobility in forced swim test compared to vehicle control ([2]; 2.5 mg/kg oral once a day, 3 weeks): 45%
immobility in forced swim test ([2]; 2.5 mg/kg oral, 21 days): active in both FST and TST depression behavioral assays; also recorded: significantly decreased the immobility
immobility in tail suspension test [3]: active in both FST and TST depression behavioral assays; also recorded: significantly reduced the immobility versus vehicle control
locomotor activity [4]: neither compound o nor p altered the motion activity
cytotoxicity or genotoxicity (overall conclusion) [5]: negligible cytotoxicity or genotoxicity
remaining unchanged after incubation [6]: 25.4%
reactive metabolite / adduct formation [7]: quite stable in vitro
inhibition at 3 µM [8]: ~27.3%
hERG inhibition [9]: suboptimal; also recorded: did not possess any concentration-dependent inhibition activity of hERG
